Series [1] can be described thus: Ex vivo serum stability. The format is in vitro ADME. To be noted: human serum, 37° C., after 120 min of tracer synthesis. How it is done: The ex vivo serum stability of [^18F]KS1 and [^18F]KS2 were analyzed in human serum samples, following previously published methods (Sai et al., Peptide-based PET imaging of the tumor restricted IL13RA2 biomarker. Oncotarget 2017, 5; Sattiraju et al., IL13RA2 targeted alpha particle therapy against glioblastoma. Journal of Nuclear Medicine 2016, 57 (supplement 2), 634; Wang et al., Evaluation of F-18-labeled amino acid derivatives and [18F]FDG as PET probes in a brain tumor-bearing animal model. Nuclear Medicine and Biology 2005, 32 (4), 367-375). Briefly, radiotracer was added to the human serum sample, and incubated at 37° C. Radioactive serum mixture was injected into the QC-HPLC system at 5 min, 30 min, 1 h, 1.5 h, 2 h, 2.5 h, and 3 h post radiotracer synthesis. Radiolysis through defluorination and/or oxidation of the radiotracers (if any) can be seen as new radiochemical peaks at different retention times (Rt) than the original product peak (Jin et al., A promising F-18 labeled PET radiotracer (-)-[18F]VAT for assessing the VAChT in vivo. Journal of Nuclear Medicine 2015, 56 (supplement 3); Koglin et al., [F-18]BAY 85-8050: A novel tumor specific probe for PET imaging-Preclinical results. Journal of Nuclear Medicine 2010, 51 (supplement 2), 1535; […] et al., Imaging COX-2 expression in cancer using PET/SPECT radioligands: current status and future directions. […]

For series [2], the system named is SCC-61 cells. To be noted: cited from earlier work.
The test system of series [3] is SCC-61 cell line (HNSCC). Description: MTT cytotoxicity IC50 assay, SCC-61. The format is cell-based, human. As to conditions: SCC-61, MTT. How it is done: (§1) The cells were seeded at density 5×10^3 cells/well. After 24 h pre-incubation period, cells were treated with 0.01 mM to 2.0 mM of freshly prepared KS1 and KS2 along with ascorbate (n=3) for 48 h. 0.2% of DMSO served as vehicle control. After 48 h, the solutions were removed from all plates and MTT assays performed following the published protocols. IC50 values are presented as mean±SD from at least three independent experiments.
(§2) There is growing evidence for a therapeutic role of ascorbate against several cancers (Creagan et al., Failure of High-Dose Vitamin C (Ascorbic Acid) Therapy to Benefit Patients with Advanced Cancer. New England Journal of Medicine 1979, 301 (13), 687-690; Chen et al., Pharmacologic ascorbic acid concentrations selectively kill cancer cells: action as a pro-drug to deliver hydrogen peroxide to tissues. Proceedings of the National Academy of Sciences of the United States of America 2005, 102 (38), 13604-13609; Prasad et al., High Doses of Multiple Antioxidant Vitamins: Essential Ingredients in Improving the Efficacy of Standard Cancer Therapy. Journal of the American College of Nutrition 1999, 18 (1), 13-25). Pharmacologic doses of ascorbate (oral and/or intravenous) could increase the effectiveness of cancer chemotherapy in many solid cancer therapies (López-Lizaro, Dual role of hydrogen peroxide in cancer: Possible relevance to cancer chemoprevention and therapy. Cancer Letters 2007, 252 (1), 1-8; Li et al., New Developments and Novel Therapeutic Perspectives for Vitamin C. The Journal of Nutrition 2007, 137 (10), 2171-2184; Klimant et al., Intravenous vitamin C in the supportive care of cancer patients: a review and rational approach. Current Oncology 2018, 25 (2), 139-148. The primary objective of this experiment was to determine the cytotoxic effects of KS1 at pharmacological concentrations. Cancer cell lines were selected based on their high ROS implications. […] These cell lines have been studied extensively with ascorbic acid treatments (Schoenfeld et al., O(2)(·−) and H(2)O(2)-Mediated Disruption of Fe Metabolism Causes the Differential Susceptibility of NSCLC and GBM Cancer Cells to Pharmacological Ascorbate. Cancer Cell 2017, 31 (4), 487-500.e8; Chen et al., Modulators of Redox Metabolism in Head and Neck Cancer. Antioxidants & Redox Signaling 2017, 29 (16), 1660-1690; Khandrika et al., Oxidative stress in prostate cancer. Cancer Lett 2009, 282 (2), 125-136.

Series [4] relates to SCC-61 and rSCC-61 cell lines. The series can be described thus: MitoSOX fluorescence ROS assay, with or without SOD blocker. The format is cell-based, human. How it is done: As a first-line tool to screen KS1 and KS2: SCC-61 has higher intracellular ROS than rSCC-61. MitoSOX is a mitochondrion-targeted dihydroethidium based derivative that primarily detects ROS (superoxide anion) produced within mitochondria. Mitosox assays without any ligands were used as controls. The two cell lines were treated with KS1, KS2 and ascorbate (10.0 μM) and incubated for an hour. MitoSOX (1.0 μM) in phenol red-free DMEM/F12 media was added and incubated for an additional 10 min. The cells were then washed with PBS and imaged in the same media.
In addition to testing KS1 with the MitoSOX assay, we compared our results with no ligand controls and ascorbate as a reference standard. The two cell lines were treated with KS1 and ascorbate (10.0 μM) and incubated for an hour. MitoSOX (1.0 μM) in phenol red-free DMEM/F12 media was added and incubated for an additional 10 min. The cells were then washed with PBS and imaged in the same media. Ligand specificity is commonly determined by pretreating the cells with high concentrations of blockers. Superoxide dismutase (SOD), an enzyme that selectively suppresses accumulation of ROS-superoxide peroxide anions, was added as blocker (1.0 mM) 60 min before the treatment of KS1 (Bielski et al., Chemistry of ascorbic acid radicals. in Ascorbic Acid: Chemistry, Metabolism, and Uses. Chapter. 1982; 4:81-100). Fluorescence was subsequently measured and its intensity was quantified in f.u (fluorescence units).
Ligand specificity is commonly determined by pretreating the cells with high concentrations of blockers. We used superoxide dismutase (SOD), an enzyme that selectively suppresses accumulation of ROS-superoxide peroxide anions (Bielski et al., Chemistry of ascorbic acid radicals. in Ascorbic Acid: Chemistry, Metabolism, and Uses. Chapter 1982, 4, 81-100). The same MitoSOX assay with KS1 and KS2 (10 μM) was performed by pretreating the SCC-61 cells with SOD (1.0 mM) for 60 min.

Series [5] relates to PC3 cell line. The series can be described thus: MTT cytotoxicity IC50 assay, PC3. The format is cell-based, human. How it is done:
as §1, §2

Series [6] has as its system SCC-61 and PC3 cell lines. Description: DCFDA intracellular ROS detection assay. The format is cell-based, human. To be noted: 2 mM, 7 h, compared to 100 μM. An excerpt:
For this, we used dichlorofluorescin diacetate (DCFDA) intracellular ROS detection assay kit and followed manufacture recommended protocol (ZHELEV et al., Docosahexaenoic Acid Sensitizes Leukemia Lymphocytes to Barasertib and Everolimus by ROS-dependent Mechanism Without Affecting the Level of ROS and Viability of Normal Lymphocytes. Anticancer Research 2016, 36 (4), 1673-1682). We studied two patient-derived tumor cell lines: SCC-61, […], and PC3, prostate cancer cell line. The maximum allowed mass for a typical clinical PET radiotracer is <100 μM (Schwarz et al., Radiochemistry and radiopharmacology. LIC-Nuclear Medicine and PET/CT: Technology and Techniques 2016, 11, 77), so we chose 10-100 μM as our concentration range for tracer-level assays. The lowest reported pharmacologic dose for ascorbate is 2.0 mM (Levine et al., Vitamin C: a concentration-function approach yields pharmacology and therapeutic discoveries. Adv Nutr 2011, 2 (2), 78-88), so we chose this dose for our pharmacological assays. We chose the ligand incubation times based on the maximum tracer uptake time (˜2 h) for a typical [^18F]-based PET radiotracer injection (Schlyer, PET tracers and radiochemistry. ANNALS-ACADEMY OF MEDICINE SINGAPORE 2004, 33 (2), 146-154).
Pharmacologic doses of ascorbate generates ROS, including H2O2 and trace amounts of labile iron extracellularly and/or intracellularly (Nauman et al., Systematic Review of Intravenous Ascorbate in Cancer Clinical Trials. Antioxidants (Basel) 2018, 7 (7), 89). We performed the same DCFDA assay with KS1 and ascorbate at pharmacological doses of 2 mM for 7 h in both SCC-61 and PC3 cell lines. ROS production was analyzed and reported (FIG. 11) using the similar measurements as above. Ligand specificity is commonly determined by pretreating the cells with high concentrations of blockers. We used superoxide dismutase (SOD), an enzyme that selectively suppresses accumulation of superoxide peroxide anions (Bielski et al., Chemistry of ascorbic acid radicals. in Ascorbic Acid: Chemistry, Metabolism, and Uses. Chapter 1982, 4, 81-100).

SMILES strings stand for the structures. Where only a bound is given, the exact number is not on record here.

In series [1], `O=C1O/C(=C/Cc2ccc(OCC[18F])cc2)C(O)=C1O` [[^18F]KS2] yielded an intact in serum of about 80%.
For the compound `C#Cc1cccc(Nc2ncnc3cc(OCCOC)c(OCCOC)cc23)c1` [erlotinib], in series [2], the IC50 is over 50 µM.
For the compound `O=C1O/C(=C/Cc2ccc(OCCF)cc2)C(O)=C1O` [KS2], the IC50 in series [3] (Example 7, 48 h) worked out at 166 µM; in series [5] (Example 7, 48 h), 0.251 mM. The “higher selectivity between the two cell lines compared to ascorbate selectivity” value in series [4] (Example 4, SCC-61 vs rSCC-61, MitoSOX fluorescence) is on record as about 10 fold. The “decrease of fluorescent uptake by SOD pretreatment” value in series [4] (SCC-61 cells, SOD (1.0 mM) for 60 min) is about 30%.
For `O=C1O[C@H]([C@@H](O)CO)C(O)=C1O` [ascorbate, ascorbic acid, reference compound], the IC50 was 815 µM in series [3] (Homo sapiens, Example 7, 48 h); 1380 µM in series [3] (Homo sapiens, Example 13); 1.12 mM in series [5] (Homo sapiens, PC-3, Example 7, 48 h); 1.41 mM in series [5] (Homo sapiens, PC-3, Example 13). Besides, the “MitoSOX fluorescence in SCC-61 compared to rSCC-61 cells” value in series [4] (10.0 μM, 1 h incubation) is on record as “higher fluorescence”. The “fluorescence intensity (ROS generation) at pharmacological dose” value in series [6] is given as “also increased, but not as with KS1”.
